According to patent publication US7537787B2, “Method for modulating glutamate and/or aspartate release in a central nervous system locus” (Indiana University Research and Technology Corporation, priority 1996, dated 2009):

Experiments:
[1] = test system: rat hippocampal slices (glutamate release); experiment: TRH inhibition of [K+]-stimulated glutamate release from superfused hippocampal slices in vitro; type: cell-based; conditions: for glutamate at 10 min. post stimulation: control 4.37±1.29; for peak 50 mM [K+]-stimulated glutamate release: control 48.05±8.59
From the text: TRH INHIBITION OF [K^+]-STIMULATED GLUTAMATE RELEASE FROM HIPPOCAMPAL SLICES IN VITRO. Enhanced excitatory amino acid release is suspected in pathways associated with seizures and excitotoxicity. In this regard, superfused hippocampal slices were used to investigate the hypothesis that TRH could inhibit glutamate release in vitro. Rat hippocampi were removed and sliced transversely (500 μm) under low magnification. Slices were weighed, washed in cold saline, transferred to individual tissue chambers floated in a 37° C. water bath and were equilibrated in oxygenated (95% O2/5% CO2), (37° C.) Kreb's buffer (KRB) for 120 min. (0.5 ml/min.). Slice chambers were then superfused 10 min. with KRB (control), or KRB containing 10 μM, 1 μM, or 0.1 μM TRH respectively, prior to 5 min. stimulation with modified KRB (50 mM [K^+]±TRH). Fractions (1 min.) were collected during the 5 min. stimulation and for an additional 10 min. (0.5 ml/min.) thereafter, and analyzed for glutamate by HPLC.

[2] = test system: Gαq/11 G proteins (TRH receptor); conditions: sustained TRH exposure (16 hr.) to its receptor; cited from earlier work

NC(=O)[C@@H]1CCCN1C(=O)[C@H](Cc1cnc[nH]1)NC(=O)[C@@H]1CCC(=O)N1 [TRH, Thyrotropin-releasing hormone]
glutamate at 10 min. post stimulation ([1]; 0.1 μM TRH): 1.54±0.43 μM/g/fraction
peak 50 mM [K+]-stimulated glutamate release ([1]; 0.1 μM TRH): 1.38±0.28 μM/g/fraction
glutamate at 10 min. post stimulation ([1]; 1 μM TRH): 1.11±0.26 μM/g/fraction
peak 50 mM [K+]-stimulated glutamate release ([1]; 1 μM TRH): 1.54±0.33 μM/g/fraction
glutamate at 10 min. post stimulation ([1]; 10 μM TRH): 1.35±0.48 μM/g/fraction
peak 50 mM [K+]-stimulated glutamate release ([1]; 10 μM TRH): 2.35±0.50 μM/g/fraction
glutamate release by 50 mM [K+]-stimulation given 15 min. later ([1]; 5 min. perfusion with KRB+10 μM TRH, p<0.05, FIG. 6): significantly (p<0.05) blocked
reduction of Gαq/11 G proteins [2]: 20-70%
